The structures appear in SMILES notation.

The assay addresses CDK2 (UniProt P24941). Kind of assay: Enzyme Assay. The settings on record: for inhibition: concentration not given here.

In general, inhibition refers to how much of the control response was suppressed. `O=C1NC(=O)C2=C1c1cn(c3ncccc13)CCCC1=CC=C(CCCn3cc2c2cccnc23)S1` had an inhibition of 20%. The Ki is a measure of affinity in units of concentration, obtained from inhibition or displacement. The low end stands for a stronger hold on the target, the high end for a looser hold on the target. For the compound `O=C1CCCCn2cc(c3cccnc32)C2=C(C(=O)NC2=O)c2cn(c3ncccc23)CCCC1`, the Ki came to 1230 nM and the inhibition is 50%. The like results for `O=C1NC(=O)C2=C1c1cn(c3ncccc13)CCCCC(O)CCCCn1cc2c2cccnc21` were, in that order, 682 nM and 57%.

The record behind these values is the Kinase Knowledgebase extract (Sharma et al. 2016).
